Source: patent US20260109732A1, “LIPID AMINES” (ModernaTX, Inc., priority 2021, published 2026)
Counter-ions that a name gives are not always drawn.

Columns and labels:
HeLa cells [1] = test: CFTR Protein Expression Assay in HeLa Cells; format: cell-based, Human; conditions: LNPs encapsulating CFTR mRNA, N=4 wells; 5 h serum-free then 24 h; immunofluorescence vs PBS control
Description: (§1) For HeLa studies evaluating CFTR protein expression, the intermediate nanoparticle formulation (1 mL, 0.415 mg mRNA) is mixed with a buffer containing 20 mM TRIS (pH 7.5), 0.9 mg/mL PEG-DMG-2K and lipid amine SA50 (647.1 nmol) at a volumetric ratio of 6:1 of nanoparticle:buffer. The resulting nanoparticle suspension undergoes concentration using a centrifugal filtration device (100 kDa molecular weight cut-off) and is diluted in running buffer (20 mM TRIS, 14.3 mM sodium acetate, and 32 g/L sucrose, pH 7.5) with a 300 mM NaCl solution to a final buffer matrix containing 70 mM NaCl.
(§2) Lipid nanoparticle compositions were prepared in a manner analogous to that in example 2. To evaluate LNP cellular uptake and protein expression In Vitro, HeLa cells from ATCC.org (ATCC CCL-2) are used. The cells are cultured in complete Minimum Essential Medium (MVEM) and are plated in 96 well Cell Carrier Ultra plate with PDL coated surface (PerkinElmer) prior to running an experiment.
Buffer control (PBS) and LNPs encapsulating cystic fibrosis transmembrane conductance regulator (CFTR) mRNA were dosed with MEM media in the absence of serum (N=4 replicate wells). LNP transfected cells were incubated for 5 h, followed by media removal and supplementation with complete MEM media. Cells were further incubated in complete MEM media overnight (24 h).
Following 24 hr incubation, the cells were fixed with PFA and processed for immunofluorescence (IF) using an anti-CFTR rabbit monoclonal antibody. Briefly, the cells were permeabilized with 0.5% TX-100 for 10 min, blocked with 3% bovine serum albumin (BSA)+PBST for 1 hr at room temperature, and incubated with primary anti-CFTR monoclonal antibody overnight at 4° C. Following primary antibody incubation, the cells were incubated with Alexa 488 conjugated secondary antibody for 30 mi and stained with DAPI and HCS CellMask Blue stain. Between different incubation steps the cells were either washed with PBS or PBST. Cells were imaged using Opera Phoenix spinning disk confocal microscope (PerkinElmer), and CFTR protein expression was detected using the 488 nm channel. The image analysis was performed in Harmony 4.9, with main analysis output being CFTR intensity per cell. The results shown in Table 3b show fold-change in CFTR signal intensity per cell compared to buffer (PBS) control (NA=not available).

[2] = Encapsulation of mRNA nanoparticles with lipid amines using Ribogreen assay; format: physicochemical
Description: (§3) Lipids are dissolved in ethanol at a concentration of 24 mg/mL and molar ratios of 49.0:11.2:39.3:0.5 (IL1:DSPC:cholesterol:PEG-DMG-2K) and mixed with the acidification buffer (45 mM acetate buffer at pH 4). The lipid solution and acidification buffer are mixed using a multi-inlet vortex mixer at a 3:7 volumetric ratio of lipid:buffer for mixer 1 and mixer 2 and a 1:3 volumetric ratio of lipid:buffer (25% ethanol) for mixer 3. After a 5 second residence time, the resulting nanoparticles are mixed with 55 mM sodium acetate at pH 5.6 at a volumetric ratio of 5:7 of nanoparticle:buffer. See Table 2a for mixing parameters. The resulting dilute nanoparticles are then buffer exchanged and concentrated using tangential flow filtration (TFF) into a final buffer containing 5 mM sodium acetate pH 5.0. Then a 70% sucrose solution in 5 mM acetate buffer at pH 5 is subsequently added.
(§4) The resulting nanoparticles at a lipid concentration of 7.33 mg/mL in 5 mM acetate (pH 5) and 75 g/L sucrose are mixed with mRNA (luciferease or CFTR) at a concentration of 0.625 mg/mL in 42.5 mM sodium acetate pH 5.0, with N:P of 4.93. The nanoparticle solution and nanoparticles are mixed using a multi-inlet vortex mixer at a 3:2 volumetric ratio of nanoparticle:mRNA. Once loaded with mRNA, these intermediate nanoparticles undergo a 300 second residence time prior addition of neutralization buffer containing 120 mM TRIS pH 8.12 at a volumetric ratio of 5:1 of nanoparticle:buffer.
(§5) For HeLa studies evaluating luciferase protein expression, PEG-DMG-2K dissolved in a 20 mM TRIS buffer (pH 7.5) is added to the neutralized intermediate nanoparticle solution at a ratio of 1:6, bringing the solution to the final molar ratios of IL1:DSPC:cholesterol:PEG-DMG-2K of 48.5:11.1:38.9:1.5%. This nanoparticle formulation is then modified with lipid amines. In a typical example, nanoparticle formulation at a concentration of 0.18 mg/mL mRNA and a 0.56 mL volume is modified with lipid amine SA50 (467.2 nmol) prepared in buffer containing 20 mM TRIS, 14.3 mM sodium acetate, 32 g/L sucrose and 140 mM NaCl-pH 7.5 at a volumetric ratio of 1:1 of nanoparticle:buffer.
as §1
(§6) Both resulting nanoparticle suspensions are filtered through a 0.8/0.2 μm capsule filter and filled into glass vials at an mRNA strength of about 0.1-1 mg/mLBliophysical data (Diameter and PDI from DLS measurements and Encapsualtion using Ribogreen assay) for both luciferase and CFTR mRNA nanoparticles with lipid amines is shown in Tables 2c and d, respectively.

[3] = Diameter and PDI from DLS measurements of mRNA nanoparticles with lipid amines; format: physicochemical
Description: as §3, §4, §5, §1, §6

HeLa cells [4] = test: Luciferase Protein Expression Assay in HeLa Cells; format: cell-based, Human; conditions: LNPs encapsulating Luciferase mRNA, 25 ng per well, N=4 wells; 5 h serum-free then 24 h; ONE-Glo
Description: as §5, §2
Cells were transfected with buffer control (PBS) or LNPs encapsulating Luciferase mRNA (25 ng per well; N=4 replicate wells) in serum-free MEM media. LNP transfected cells were incubated for 5 h, followed by media removal and supplementation with complete MEM media. Cells were further incubated in complete MEM media overnight (24 h). Following the 24 hr incubation, luciferase protein expression was measured using the ONE-Glo™ Luciferase Assay (Promega). Cells were lysed using 1× Passive Lysis Buffer (Cat. #E194A) for 10 min in a microplate mixer at room temperature. Luciferase in the supernatant was measured by adding Luciferase Assay Reagent (Cat. #E151A) containing luciferin. Bioluminescence was then immediately measured on a Synergy H1 plate reader (BioTek). The results shown in Table 3a show the Average Relative Light Units (RLU) of each sample tested.

[5] = CFTR mRNA nanoparticle with lipid amine
[6] = Luciferase mRNA nanoparticle modified with lipid amine

| SMILES | Average fold-change in CFTR signal intensity per cell compared to buffer control ± standard deviation (HeLa cells [1]) [fold-change] | % Encapsulation (Ribogreen) [2, 5] [%] | % Encapsulation (Ribogreen) [2, 6] [%] | Diameter (nm) [3, 5] [nm] | PDI [3, 5] | Diameter (nm) [3, 6] [nm] | PDI [3, 6] | Average Relative Light Units ± Standard Deviation (HeLa cells [4]) [Relative Light Units] |
| --- | --- | --- | --- | --- | --- | --- | --- | --- |
| CC(C)CCC[C@@H](C)[C@H]1CC[C@H]2[C@@H]3CC=C4C[C@@H](OC(=O)N(CCCN)CCCCOCCCN)CC[C@]4(C)[C@H]3CC[C@]12C [SA61, (3S,8S,9S,10R,13R,14S,17R)-10,13-Dimethyl-17-((R)-6-methylheptan-2-yl)-2,3,4,7,8,9,10,11,12,13,14,15,16,17-tetradecahydro-1H-cyclopenta[a]phenanthren-3-yl (4-(3-aminopropoxy)butyl)(3-aminopropyl)carbamate dihydrochloride] | 7.2 ± 0.4 | 99.4 | 99.1 | 71.3 | 0.11 | 77 | 0.16 | 14343.1 ± 5298.1 |
| CC(C)CCC[C@@H](C)[C@H]1CC[C@H]2[C@@H]3CC=C4C[C@@H](OC(=O)C(C)C(=O)N(CCCN)CCCCNCCCN)CC[C@]4(C)[C@H]3CC[C@]12C.Cl.Cl.Cl (stereo partly drawn) [SA62, (3S,8S,9S,10R,13R,14S,17R)-10,13-Dimethyl-17-((R)-6-methylheptan-2-yl)-2,3,4,7,8,9,10,11,12,13,14,15,16,17-tetradecahydro-1H-cyclopenta[a]phenanthren-3-yl 3-((3-aminopropyl)(4-((3-aminopropyl)amino)butyl)amino)-2-methyl-3-oxopropanoate trihydrochloride] | 5.5 ± 1.3 | 99.6 | 99.0 | 74.2 | 0.10 | 78 | 0.20 | 18807.1 ± 6618.4 |
| CC(C)CCC[C@@H](C)[C@H]1CC[C@H]2[C@@H]3CC=C4C[C@@H](OC(=O)C(=O)N(CCCN)CCCCNCCCN)CC[C@]4(C)[C@H]3CC[C@]12C [SA66, (3S,8S,9S,10R,13R,14S,17R)-10,13-Dimethyl-17-((R)-6-methylheptan-2-yl)-2,3,4,7,8,9,10,11,12,13,14,15,16,17-tetradecahydro-1H-cyclopenta[a]phenanthren-3-yl 2-((3-aminopropyl)(4-((3-aminopropyl)amino)butyl)amino)-2-oxoacetate trihydrochloride] | 2.4 ± 0.1 | 99.5 | 88.2 | 75.7 | 0.13 | 72 | 0.18 | 13951.3 ± 6740.3 |
| CC[C@H](CC[C@@H](C)[C@H]1CC[C@H]2[C@@H]3CC=C4C[C@@H](OC(=O)N(CCCN)CCCCCCCCN)CC[C@]4(C)[C@H]3CC[C@]12C)C(C)C [SA69, (3S,8S,9S,10R,13R,14S,17R)-17-((2R,5R)-5-Ethyl-6-methylheptan-2-yl)-10,13-dimethyl-2,3,4,7,8,9,10,11,12,13,14,15,16,17-tetradecahydro-1H-cyclopenta[a]phenanthren-3-yl (8-aminooctyl)(3-aminopropyl)carbamate dihydrochloride] | 5.3 ± 0.5 | 99.9 | 98.9 | 74.0 | 0.13 | 71 | 0.16 | 35256.9 ± 8309.9 |
| C/C(=C/CCC(C)C)[C@H]1CC[C@H]2[C@@H]3CC=C4C[C@@H](OC(=O)N(CCCN)CCCCNCCCN)CC[C@]4(C)[C@H]3CC[C@]12C [SA70, (3S,8S,9S,10R,13R,14S,17R)-10,13-dimethyl-17-((R)-6-methylheptan-2-yl)-2,3,4,7,8,9,10,11,12,13,14,15,16,17-tetradecahydro-1H-cyclopenta[a]phenanthren-3-yl (3-aminopropyl)(4-((3-aminopropyl)amino)butyl)carbamate analog olefin elimination by-product from hydroxycholesterol] | 4.5 ± 0.8 | 99.8 | 97.9 | 76.2 | 0.16 | 76 | 0.21 | 11822.1 ± 4128.6 |
| CC(C)CCC[C@@H](C)[C@H]1CC[C@H]2[C@@H]3CC=C4C[C@@H](OC(=O)CN(CCCN)CCCCCCCCN)CC[C@]4(C)[C@H]3CC[C@]12C [SA71, (3S,8S,9S,10R,13R,14S,17R)-10,13-Dimethyl-17-((R)-6-methylheptan-2-yl)-2,3,4,7,8,9,10,11,12,13,14,15,16,17-tetradecahydro-1H-cyclopenta[a]phenanthren-3-yl N-(8-aminooctyl)-N-(3-aminopropyl)glycinate trihydrochloride] | 6.0 ± 0.4 | 99.8 | 99.1 | 74.3 | 0.12 | 73 | 0.15 | 32758.9 ± 5897.1 |
